Laboratory results: US9573956B2, “Compounds as dual inhibitors of phosphodiesterases and histone deacetylases” (FUNDACIÓN PARA LA INVESTIGACIÓN MÉDICA APLICADA, priority 2013, dated 2017)
Like-named read-outs stand apart in the source and are kept apart here.

Legend:
Format in all cases: biochemical
[1] = target: T1, PDE5A (Homo sapiens, UniProt O76074); assay: PDE enzyme activity assay (HTRF cGMP), PDE5A
T1 construct: they are full-length with N-terminal GST tag; GST (N); purchased BPS Biosciences 60050; host or cells: baculovirus infected Sf9 cells

[2] = target: T2, HDAC6 (Homo sapiens, UniProt Q9UBN7); assay: HDAC enzyme activity assay (fluorogenic substrate), HDAC6
T2 construct: BC069243; Cat. #50006) is full-length with N-terminal GST tag; GST (N); purchased BPS Biosciences 50006; host or cells: baculovirus infected Sf9 cells
T2 sequence (Q9UBN7 1-1215): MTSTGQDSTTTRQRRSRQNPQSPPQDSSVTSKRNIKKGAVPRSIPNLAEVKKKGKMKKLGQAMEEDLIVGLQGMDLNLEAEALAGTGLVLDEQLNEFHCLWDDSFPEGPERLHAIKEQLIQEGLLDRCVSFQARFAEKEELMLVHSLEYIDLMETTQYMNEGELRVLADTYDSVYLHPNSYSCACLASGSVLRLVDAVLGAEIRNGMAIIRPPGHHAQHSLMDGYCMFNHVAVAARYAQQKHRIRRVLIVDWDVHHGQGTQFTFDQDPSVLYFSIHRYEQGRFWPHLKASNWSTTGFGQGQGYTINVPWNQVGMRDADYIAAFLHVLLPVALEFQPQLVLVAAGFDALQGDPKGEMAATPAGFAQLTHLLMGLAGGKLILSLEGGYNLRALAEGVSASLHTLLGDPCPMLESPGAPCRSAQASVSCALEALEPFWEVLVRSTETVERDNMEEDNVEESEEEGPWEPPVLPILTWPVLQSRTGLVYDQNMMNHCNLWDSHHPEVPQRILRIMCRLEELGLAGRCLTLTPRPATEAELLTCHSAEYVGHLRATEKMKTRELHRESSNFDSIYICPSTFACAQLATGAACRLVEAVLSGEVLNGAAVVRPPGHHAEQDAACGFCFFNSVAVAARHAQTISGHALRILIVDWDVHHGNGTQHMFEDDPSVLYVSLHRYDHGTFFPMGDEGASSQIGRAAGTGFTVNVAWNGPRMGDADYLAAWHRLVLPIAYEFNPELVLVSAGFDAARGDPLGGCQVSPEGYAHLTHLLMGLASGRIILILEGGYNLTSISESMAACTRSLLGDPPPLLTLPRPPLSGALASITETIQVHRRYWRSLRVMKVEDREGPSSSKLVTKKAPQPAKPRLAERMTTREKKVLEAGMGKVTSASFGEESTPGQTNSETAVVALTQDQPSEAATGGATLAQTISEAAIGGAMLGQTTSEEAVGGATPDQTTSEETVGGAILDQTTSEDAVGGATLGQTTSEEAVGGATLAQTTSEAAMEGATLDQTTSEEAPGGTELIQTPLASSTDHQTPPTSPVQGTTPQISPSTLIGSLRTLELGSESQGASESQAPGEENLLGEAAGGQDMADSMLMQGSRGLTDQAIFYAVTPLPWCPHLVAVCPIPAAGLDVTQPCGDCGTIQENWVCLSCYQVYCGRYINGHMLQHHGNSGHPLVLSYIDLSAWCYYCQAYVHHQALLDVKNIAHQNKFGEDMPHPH

[3] = target: HDAC1 (Homo sapiens, UniProt Q13547); assay: HDAC enzyme activity assay (fluorogenic substrate), HDAC1
Chain of HDAC1 (Q13547 whole entry): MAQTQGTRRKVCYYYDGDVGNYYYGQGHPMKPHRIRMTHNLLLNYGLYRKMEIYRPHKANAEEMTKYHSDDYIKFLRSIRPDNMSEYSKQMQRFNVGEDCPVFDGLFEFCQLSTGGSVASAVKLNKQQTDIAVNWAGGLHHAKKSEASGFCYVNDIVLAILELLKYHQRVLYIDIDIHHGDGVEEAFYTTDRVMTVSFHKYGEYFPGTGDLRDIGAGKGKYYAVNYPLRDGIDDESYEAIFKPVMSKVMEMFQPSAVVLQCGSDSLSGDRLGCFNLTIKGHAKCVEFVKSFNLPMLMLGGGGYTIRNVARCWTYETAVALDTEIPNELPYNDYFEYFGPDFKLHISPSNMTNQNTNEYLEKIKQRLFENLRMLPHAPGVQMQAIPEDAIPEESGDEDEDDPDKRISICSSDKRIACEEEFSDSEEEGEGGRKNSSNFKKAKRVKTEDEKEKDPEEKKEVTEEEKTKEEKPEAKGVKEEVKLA

[4] = target: T3, HDAC2 (Homo sapiens, UniProt Q92769); assay: HDAC enzyme activity assay (fluorogenic substrate), HDAC2
T3 construct: NM_001527; Cat. #50002) is full-length with C-terminal his tag; His (C); purchased BPS Biosciences 50002; host or cells: baculovirus infected Sf9 cells
T3 sequence (Q92769 whole entry): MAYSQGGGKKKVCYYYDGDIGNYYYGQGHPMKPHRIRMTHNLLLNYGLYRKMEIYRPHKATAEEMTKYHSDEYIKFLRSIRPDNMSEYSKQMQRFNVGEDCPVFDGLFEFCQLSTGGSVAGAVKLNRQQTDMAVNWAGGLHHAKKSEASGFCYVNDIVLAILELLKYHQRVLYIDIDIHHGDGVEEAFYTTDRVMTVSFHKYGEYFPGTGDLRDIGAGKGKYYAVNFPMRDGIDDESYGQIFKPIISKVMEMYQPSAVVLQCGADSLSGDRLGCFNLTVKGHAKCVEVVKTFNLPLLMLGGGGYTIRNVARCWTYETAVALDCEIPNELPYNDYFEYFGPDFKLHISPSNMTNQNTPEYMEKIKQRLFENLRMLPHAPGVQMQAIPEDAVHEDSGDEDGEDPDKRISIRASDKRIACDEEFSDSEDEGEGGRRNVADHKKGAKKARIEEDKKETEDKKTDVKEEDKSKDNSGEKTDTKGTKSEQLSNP

[5] = recombinant enzyme, read-out: PDE5A1 inhibition (IC50)
[6] = recombinant enzyme, read-out: HDAC6 inhibition (IC50)
[7] = recombinant enzyme, read-out: HDAC1 inhibition (IC50)
[8] = recombinant enzyme, read-out: HDAC2 inhibition (IC50)
[9] = comparative examples, inactive, read-out: HDAC6 IC50
[10] = comparative examples, inactive, read-out: HDAC1 IC50
[11] = comparative examples, inactive, read-out: HDAC2 IC50

| Molecule | IC50 [1, 5] [nM] | IC50 [2, 6] [nM] | other results |
| --- | --- | --- | --- |
| CCCc1nn(C)c2c(=O)[nH]c(-c3cc(CC4CCC(CC(=O)NO)CC4)ccc3OCC)nc12 (racemic) [Example 1-43] | 10 to 1000 | 10 to 1000 | IC50 [3, 7]: 1000 to 10000 nM; IC50 [4, 8]: > 10000 nM |
| CCCc1nn(C)c2c(=O)[nH]c(-c3cc(C4CCC(C(=O)NO)CC4)ccc3OCC)nc12 (racemic) [Example 1-75, 4-[4-ethoxy-3-(1-methyl-7-oxo-3-propyl-6H-pyrazolo[4,3-d]pyrimidin-5-yl)phenyl]cyclohexanecarbohydroxamic acid] | 10 to 1000 | 1000 to 10000 |  |
| CCCc1nn(C)c2c(=O)[nH]c(-c3cc(CC4CCC(C(=O)NO)CC4)ccc3OCC)nc12 (racemic) [Example 1-76, 4-[[4-ethoxy-3-(1-methyl-7-oxo-3-propyl-6H-pyrazolo[4,3-d]pyrimidin-5-yl)phenyl]methyl]cyclohexanecarbohydroxamic acid] | 10 to 1000 | 10 to 1000 |  |
| CCCc1nn(C)c2c(=O)[nH]c(-c3cc(CC4CCC(C(=O)NO)C4)ccc3OCC)nc12 (racemic) [Example 1-80, 3-[[4-ethoxy-3-(1-methyl-7-oxo-3-propyl-6H-pyrazolo[4,3-d]pyrimidin-5-yl)phenyl]methyl]cyclopentanecarbohydroxamic acid] | 10 to 1000 | 10 to 1000 |  |
| CCCc1nn(C)c2c(=O)[nH]c(-c3cc(C4CC(C(=O)NO)C4)ccc3OCC)nc12 (racemic) [Example 1-82, 3-[4-ethoxy-3-(1-methyl-7-oxo-3-propyl-6H-pyrazolo[4,3-d]pyrimidin-5-yl)phenyl]cyclobutanecarbohydroxamic acid] | 10 to 1000 | 10 to 1000 |  |
| CCCc1nc(C)c2c(=O)[nH]c(-c3cc(C4CCC(C(=O)NO)CC4)ccc3OCC)nn12 (racemic) [Example 2-12, 4-[4-ethoxy-3-(5-methyl-4-oxo-7-propyl-3H-imidazo[5,1-f][1,2,4]triazin-2-yl)phenyl]cyclohexanecarbohydroxamic acid] | < 10 | 1000 to 10000 |  |
| CCCc1nc(C)c2c(=O)[nH]c(-c3cc(S(=O)(=O)N(C)CC(=O)N(C)OC)ccc3OCC)nn12 [Comparative Example 2-01, 2-[[4-ethoxy-3-(5-methyl-4-oxo-7-propyl-3H-imidazo[5,1-f][1,2,4]triazin-2-yl)phenyl]sulfonyl-methyl-amino]-N-methoxy-N-methyl-acetamide, reference compound] |  |  | IC50 [2, 9]: > 20000 nM; IC50 [3, 10]: > 20000 nM; IC50 [4, 11]: > 20000 nM |
| CCCc1nc(C)c2c(=O)[nH]c(-c3cc(CC4CC(C(=O)N(C)OC)C4)ccc3OCC)nn12 (stereo not shown) [Comparative Example 2-02, 3-[[4-ethoxy-3-(5-methyl-4-oxo-7-propyl-3H-imidazo[5,1-f][1,2,4]triazin-2-yl)phenyl]methyl]-N-methoxy-N-methylcyclobutanecarboxamide, reference compound] |  |  | IC50 ([1]; comparative example, read-out: PDE5A1 IC50): < 10 nM; IC50 [2, 9]: > 20000 nM; IC50 [3, 10]: > 20000 nM; IC50 [4, 11]: > 20000 nM |
| CCCc1nn(C)c2c(=O)[nH]c(-c3cc(S(=O)(=O)N4CCC(CCC(=O)NO)CC4)ccc3OCC)nc12 [Example 1-01] | 10 to 1000 |  | IC50 [3, 7]: > 10000 nM; IC50 [4, 8]: > 10000 nM |
| CCCc1nn(C)c2c(=O)[nH]c(-c3cc(S(=O)(=O)N4CCN(Cc5ccc(/C=C/C(=O)NO)cc5)CC4)ccc3OCC)nc12 [Example 1-02] | < 10 |  | IC50 [3, 7]: 10 to 1000 nM; IC50 [4, 8]: 1000 to 10000 nM |
| CCCc1nn(C)c2c(=O)[nH]c(-c3cc(S(=O)(=O)N4CCN(CCC(=O)NO)CC4)ccc3OCC)nc12 [Example 1-04, 3-(4-[3-(6,7-Dihydro-1-methyl-7-oxo-3-propyl-1H-pyrazolo[4,3-d]pyrimidin-5-yl)-4-ethoxyphenylsulfonyl]piperazin-1-yl)-N-hydroxypropanamide] | < 10 |  | IC50 [3, 7]: 1000 to 10000 nM; IC50 [4, 8]: > 10000 nM |
| CCCc1nn(C)c2c(=O)[nH]c(-c3cc(S(=O)(=O)N4CCN(CCCC(=O)NO)CC4)ccc3OCC)nc12 [Example 1-05] | < 10 |  | IC50 [3, 7]: 1000 to 10000 nM; IC50 [4, 8]: 1000 to 10000 nM |
| CCCc1nn(C)c2c(=O)[nH]c(-c3cccc(OC4CCN(c5ncc(C(=O)NO)cn5)CC4)c3)nc12 [Example 1-14] | 1000 to 10000 | 10 to 1000 | IC50 [3, 7]: 10 to 1000 nM |
| CCCc1nn(C)c2c(=O)[nH]c(-c3cc(CC4CCN(CC(=O)NO)CC4)ccc3OCC)nc12 [Example 1-32] | < 10 | 1000 to 10000 | IC50 [4, 8]: > 10000 nM |
| CCCc1nn(C)c2c(=O)[nH]c(-c3cc(NC4CCN(c5ccc(C(=O)NO)cc5)CC4)ccc3OCC)nc12 [Example 1-47] | 10 to 1000 | 1000 to 10000 | IC50 [3, 7]: 1000 to 10000 nM |
| CCCc1nn(C)c2c(=O)[nH]c(-c3cc(-c4ccc(C(=O)NO)s4)ccc3OCC)nc12 [Example 1-71] | < 10 | 10 to 1000 |  |
| CCCc1nn(C)c2c(=O)[nH]c(-c3cc(-c4ccc(C(=O)NO)cn4)ccc3OCC)nc12 [Example 1-72] | < 10 | 10 to 1000 |  |
| CCCc1nn(C)c2c(=O)[nH]c(-c3cc(-c4ccc(C(=O)NO)nc4)ccc3OCC)nc12 [Example 1-73] | < 10 | 10 to 1000 |  |
| CCCc1nn(C)c2c(=O)[nH]c(-c3cc(-c4ccc(C(=O)NO)o4)ccc3OCC)nc12 [Example 1-74] | < 10 | 1000 to 10000 |  |
| CCCc1nn(C)c2c(=O)[nH]c(-c3cc(C(OC)c4ccc(C(=O)NO)cc4)ccc3OCC)nc12 (stereo not shown) [Example 1-77, 4-[[4-ethoxy-3-(1-methyl-7-oxo-3-propyl-6H-pyrazolo[4,3-d]pyrimidin-5-yl)phenyl]-methoxy-methyl]benzenecarbohydroxamic acid] | 10 to 1000 | 10 to 1000 |  |
| CCCc1nn(C)c2c(=O)[nH]c(-c3cc(C(O)c4ccc(C(=O)NO)cc4)ccc3OCC)nc12 (stereo not shown) [Example 1-78, 4-[[4-ethoxy-3-(1-methyl-7-oxo-3-propyl-6H-pyrazolo[4,3-d]pyrimidin-5-yl)phenyl]-hydroxy-methyl]benzenecarbohydroxamic acid] | < 10 | 10 to 1000 |  |
| CCCc1nn(C)c2c(=O)[nH]c(-c3cc(C(=O)c4ccc(C(=O)NO)s4)ccc3OCC)nc12 [Example 1-79, 5-[4-ethoxy-3-(1-methyl-7-oxo-3-propyl-6H-pyrazolo[4,3-d]pyrimidin-5-yl)benzoyl]thiophene-2-carbohydroxamic acid] | < 10 | 10 to 1000 |  |
| CCCc1nn(C)c2c(=O)[nH]c(-c3cc(CC4CCC(C(=O)NO)C4)ccc3OCC)nc12 (stereo not shown) [Example 1-83, 3-[[4-ethoxy-3-(1-methyl-7-oxo-3-propyl-6H-pyrazolo[4,3-d]pyrimidin-5-yl)phenyl]methyl]cyclopentanecarbohydroxamic acid] | 10 to 1000 | 10 to 1000 |  |
| CCCc1nc(C)c2c(=O)[nH]c(-c3cc(Cc4ccc(C(=O)NO)s4)ccc3OCC)nn12 [Example 2-10] | < 10 | 10 to 1000 |  |
| CCCc1nc(C)c2c(=O)[nH]c(-c3cc(-c4ccc(C(=O)NO)cc4)ccc3OCC)nn12 [Example 2-11] | < 10 | 10 to 1000 |  |
| CCCc1nc(C)c2c(=O)[nH]c(-c3cc(C4CCC(C(=O)NO)CC4)ccc3OCC)nn12 (stereo not shown) [Example 2-13, 4-[4-ethoxy-3-(5-methyl-4-oxo-7-propyl-3H-imidazo[5,1-f][1,2,4]triazin-2-yl)phenyl]cyclohexanecarbohydroxamic acid] | < 10 | 10 to 1000 |  |
| (1R,2R)-2-(1-(4,4-difluorocyclohexyl)-3a,4,5,7a-tetrahydro-4-oxo-1H-pyrazolo[3,4-d]pyrimidin-6-yl)-N-methoxy-N-methylcyclobutanecarboxamide [Comparative Example 3-01, reference compound] |  |  | IC50 [2, 9]: > 20000 nM; IC50 [3, 10]: > 20000 nM; IC50 [4, 11]: > 20000 nM |
